# From PMC3700073, “Synthesis and Biological Activity of New Thiopyrano[2,3-d]thiazoles Containing a Naphthoquinone Moiety” (Scientia Pharmaceutica, 2013)
# Like-named read-outs stand apart in the source and are kept apart here.
# Legend:
# IGROV-1 (ovarian cancer) = assay: NCI five-dose assay; format: cell-based; conditions: Homo sapiens
# UACC-62 (melanoma) = assay: NCI five-dose assay; format: cell-based; conditions: Homo sapiens, UACC-62, UACC-62, melanoma
# [1] = system: MDA-MB-231/ATCC (breast cancer); assay: NCI five-dose assay; format: cell-based; conditions: Homo sapiens, MDA-MB-231, MDA-MB-231/ATCC
# M14 (melanoma) = assay: NCI five-dose assay; format: cell-based; conditions: Homo sapiens
# MOLT-4 (leukemia) = assay: NCI five-dose assay; format: cell-based; conditions: Homo sapiens, MOLT-4, MOLT-4, leukemia
# KM12 (colon cancer) = assay: NCI five-dose assay; format: cell-based; conditions: Homo sapiens
# [2] = system: MDA-MB-435 (breast cancer); assay: NCI five-dose assay; format: cell-based; conditions: Homo sapiens, MDA-MB-435, MDA-MB-435, breast cancer
# A549/ATCC (NSCL cancer) = assay: NCI five-dose assay; format: cell-based; conditions: Homo sapiens
# DU-145 (prostate cancer) = assay: NCI five-dose assay; format: cell-based; conditions: Homo sapiens, DU-145, DU-145, prostate cancer
# 60 cancer cell lines = assay: cells; conditions: Homo sapiens
# UO-31 (renal cancer) = assay: NCI five-dose assay; format: cell-based; conditions: Homo sapiens, UO-31, UO-31, renal cancer
# ACHN (renal cancer) = assay: NCI five-dose assay; format: cell-based; conditions: Homo sapiens
# LOX IMVI (melanoma) = assay: NCI five-dose assay; format: cell-based; conditions: Homo sapiens
# SK-MEL-2 (melanoma) = assay: NCI five-dose assay; format: cell-based; conditions: Homo sapiens, SK-MEL-2, SK-MEL-2, melanoma
# SK-OV-3 (ovarian cancer) = assay: NCI five-dose assay; format: cell-based; conditions: Homo sapiens, SK-OV-3, SK-OV-3, ovarian cancer
# HT29 (colon cancer) = assay: NCI five-dose assay; format: cell-based; conditions: Homo sapiens, HT-29, HT29, colon cancer
# SR (leukemia) = assay: NCI five-dose assay; format: cell-based; conditions: Homo sapiens
# SN12C (renal cancer) = assay: NCI five-dose assay; format: cell-based; conditions: Homo sapiens
# SK-MEL-5 (melanoma) = assay: NCI five-dose assay; format: cell-based, human; conditions: for GI50: Homo sapiens, SK-MEL-5, SK-MEL-5, melanoma; for TGI of the most sensitive cell line: SK-MEL-5 /melanoma/
# A498 (renal cancer) = assay: NCI five-dose assay; format: cell-based; conditions: Homo sapiens
# [3] = system: NCI/ADR-RES (breast cancer); assay: NCI five-dose assay; format: cell-based; conditions: Homo sapiens
# TK-10 (renal cancer) = assay: NCI five-dose assay; format: cell-based; conditions: Homo sapiens, TK-10, TK-10, renal cancer
# HOP-62 (NSCL cancer) = assay: NCI five-dose assay; format: cell-based; conditions: Homo sapiens, HOP-62, HOP-62, NSCL cancer
# male mice = assay: Acute toxicity in vivo, median lethal dose; conditions: intraperitoneal, approximate LD50 (Litchfield and Wilcoxon)
# Experimental: The synthesized compounds were evaluated for their approximate LD50 in male mice. The mice were kept under a constant temperature and humidity in sterile cages with water and food. The stock solutions of the compounds used in this study were prepared immediately before usage and injected intraperitoneally (ip). The LD50 values (Tab. 3) were calculated using the method described by Litchfield and Wilcoxon.
# The median lethal dose (LD50), the dose of the selected compounds that causes 50% mortality in mice, was determined from dose–response curves with at least four doses by the method of Litchfield and Wilcoxon.
# 786-0 (renal cancer) = assay: NCI five-dose assay; format: cell-based; conditions: Homo sapiens, 786-0, 786-0, renal cancer
# NCI-H522 (NSCL cancer) = assay: NCI five-dose assay; format: cell-based; conditions: Homo sapiens
# RPMI-8226 (leukemia) = assay: NCI five-dose assay; format: cell-based; conditions: Homo sapiens, RPMI-8226, RPMI-8226, leukemia
# OVCAR-3 (ovarian cancer) = assay: NCI five-dose assay; format: cell-based; conditions: Homo sapiens, OVCAR-3, OVCAR-3, ovarian cancer
# SF-268 (CNS cancer) = assay: NCI five-dose assay; format: cell-based; conditions: Homo sapiens, SF-268, SF-268, CNS cancer
# OVCAR-5 (ovarian cancer) = assay: NCI five-dose assay; format: cell-based; conditions: Homo sapiens, OVCAR-5, OVCAR-5, ovarian cancer
# OVCAR-4 (ovarian cancer) = assay: NCI five-dose assay; format: cell-based; conditions: Homo sapiens, OVCAR-4, OVCAR-4, ovarian cancer
# CAKI-1 (renal cancer) = assay: NCI five-dose assay; format: cell-based; conditions: Homo sapiens, CAKI-1, CAKI-1, renal cancer
# CCRF-CEM (leukemia) = assay: NCI five-dose assay; format: cell-based; conditions: Homo sapiens
# NCI-H322M (NSCL cancer) = assay: NCI five-dose assay; format: cell-based; conditions: Homo sapiens
# SF-295 (CNS cancer) = assay: NCI five-dose assay; format: cell-based; conditions: Homo sapiens, SF-295, SF-295, CNS cancer
# BT-549 (breast cancer) = assay: NCI five-dose assay; format: cell-based; conditions: Homo sapiens, BT-549, BT-549, breast cancer
# [4] = read-out: GI50 MG_MID, over the cell line panel
# [5] = read-out: GI50 Range (min – max), over the cell line panel
# [6] = read-out: LC50 MG_MID, over the cell line panel
# [7] = read-out: LC50 Range (min – max), over the cell line panel
SMILES,GI50 (IGROV-1 (ovarian cancer)),GI50 (UACC-62 (melanoma)),GI50 [1],GI50 (M14 (melanoma)),GI50 (MOLT-4 (leukemia)),GI50 (KM12 (colon cancer)),GI50 [2],GI50 (A549/ATCC (NSCL cancer)),GI50 (DU-145 (prostate cancer)),GI50 (60 cancer cell lines; [4]),GI50 (60 cancer cell lines; [5]),CC50 (60 cancer cell lines; [6]),CC50 (60 cancer cell lines; [7]),GI50 (UO-31 (renal cancer)),GI50 (ACHN (renal cancer)),GI50 (LOX IMVI (melanoma)),GI50 (SK-MEL-2 (melanoma)),GI50 (SK-OV-3 (ovarian cancer)),GI50 (HT29 (colon cancer)),GI50 (SR (leukemia)),further results
"COc1ccc(C2C3=C(Sc4[nH]c(=O)sc42)C(=O)c2ccccc2C3=O)cc1OC (centres unmarked) [Compound 4f, 11-(3,4-Dimethoxyphenyl)-3,11-dihydro-2H-benzo[6,7]thiochromeno[2,3-d][1,3]thiazole-2,5,10-trione]",3.35 µM,2.21 µM,3.13 µM,2.67 µM,3.88 µM,5.99 µM,2.19 µM,2.35 µM,1.68 µM,4.19 µM,1.26 to 17.7 µM,47.9 µM,5.34 to 93 µM,10.8 µM,9.24 µM,1.26 µM,4.19 µM,13.6 µM,3.15 µM,3.96 µM,GI50 (SN12C (renal cancer)): 3.68 µM; GI50 (SK-MEL-5 (melanoma)): 1.52 µM; TGI of the most sensitive cell line (SK-MEL-5 (melanoma)): 1.52 / 2.85 μM; GI50 (A498 (renal cancer)): 4.91 µM; GI50 [3]: 7.07 µM; GI50 (TK-10 (renal cancer)): 17.6 µM; GI50 (HOP-62 (NSCL cancer)): 5.87 µM; LD50ip (male mice): 410 mg/kg; GI50 (786-0 (renal cancer)): 15.2 µM; GI50 (NCI-H522 (NSCL cancer)): 7.91 µM; GI50 (RPMI-8226 (leukemia)): 4.64 µM; GI50 (OVCAR-3 (ovarian cancer)): 3.01 µM; GI50 (SF-268 (CNS cancer)): 4.89 µM; GI50 (OVCAR-5 (ovarian cancer)): 17.7 µM; GI50 (OVCAR-4 (ovarian cancer)): 2.48 µM; GI50 (CAKI-1 (renal cancer)): 11.2 µM; GI50 (CCRF-CEM (leukemia)): 4.38 µM; GI50 (NCI-H322M (NSCL cancer)): 3.78 µM; GI50 (SF-295 (CNS cancer)): 3.77 µM; GI50 (BT-549 (breast cancer)): 2.84 µM
"COc1cc(C2C3=C(Sc4[nH]c(=O)sc42)C(=O)c2ccccc2C3=O)ccc1OCc1ccccc1 (centres unmarked) [Compound 4e, 11-[4-(Benzyloxy)-3-methoxyphenyl]-3,11-dihydro-2H-benzo[6,7]thiochromeno[2,3-d]-[1,3]thiazole-2,5,10-trione]",15.4 µM,12.5 µM,7.81 µM,6.9 µM,17.3 µM,16.9 µM,12 µM,3.16 µM,4.19 µM,12 µM,2.62 to 32.6 µM,85.1 µM,26.3 to 98.7 µM,5.62 µM,17.8 µM,8.03 µM,20.3 µM,31.7 µM,11.2 µM,13.8 µM,GI50 (SN12C (renal cancer)): 15.3 µM; GI50 (SK-MEL-5 (melanoma)): 2.62 µM; TGI of the most sensitive cell line (SK-MEL-5 (melanoma)): 2.62 / 6.90 μM; GI50 (A498 (renal cancer)): 20.5 µM; GI50 [3]: 22.7 µM; GI50 (TK-10 (renal cancer)): 29.7 µM; GI50 (HOP-62 (NSCL cancer)): 14.9 µM; LD50ip (male mice): >1000 mg/kg; GI50 (786-0 (renal cancer)): 32.6 µM; GI50 (NCI-H522 (NSCL cancer)): 15.9 µM; GI50 (RPMI-8226 (leukemia)): 14.5 µM; GI50 (OVCAR-3 (ovarian cancer)): 11.2 µM; GI50 (SF-268 (CNS cancer)): 14.1 µM; GI50 (OVCAR-5 (ovarian cancer)): 32.1 µM; GI50 (OVCAR-4 (ovarian cancer)): 4.48 µM; GI50 (CAKI-1 (renal cancer)): 17.4 µM; GI50 (CCRF-CEM (leukemia)): 23.4 µM; GI50 (NCI-H322M (NSCL cancer)): 10.9 µM; GI50 (SF-295 (CNS cancer)): 5.78 µM; GI50 (BT-549 (breast cancer)): 13.4 µM
